Results on two compounds are retold here after US10434193B2, “Composition for use in medical imaging and a method for preparing thereof” (Jacobson Research Laboratory Limited, priority 2017, dated 2019).

A short description of this series: Determination of relaxivities r1 and r2 of contrast agents under MRI. It counts as physicochemical. The text has this: During an MRI study, an MRI contrast agent generally shortens the value of a characteristic time constant known as the relaxation time of the nearby water protons at the tissues being examined to thereby enhance contrast of the image. The relaxivity of a contrast agent reflects how the relaxation rates of a solution change as a function of concentration [C]. Since a contrast agent may individually affect two relaxation rates (1/ΔT1 and 1/ΔT2), the degree of contrast as provided by a contrast agent is generally characterized under two corresponding relaxivities, i.e. r1 and r2 (L/mmol-s), which are defined by: 1/ΔT1=r1·[C] and 1/ΔT2=r2·[C]
The relaxation rates of a contrast agent in solution are obtained by graphing changes in relaxation rates (1/ΔT1) and (1/ΔT2) at different concentrations, with r1 and r2 being determined by the slopes of the graph.
For each of the contrast agents being tested, samples have been prepared in 10 different concentrations, namely, 1000 μg/ml, 750 μg/ml, 500 μg/ml, 250 μg/ml, 125 μg/ml, 62.50 μg/ml, 31.25 μg/ml, 15.63 μg/ml, 7.81 μg/ml and 3.91 μg/ml using DMF:H2O 4:1 as solvent for dilution of the respective stock samples.

[1] abbreviates: 10 concentrations 3.91-1000 μg/ml in DMF:H2O 4:1.

Take `O=[N+]([O-])[O-].O=[N+]([O-])[O-].O=[N+]([O-])[O-].[Fe+3]` [Fe(NO3)3, iron nitrate]: the “r1” value is, setting by setting: under setting [1], 0.0004 mL/µg/s; (molecular weight adjusted) 0.0968 L/mmol/s.
As to `[Cl][Gd]([Cl])[Cl]` [GdCl3], the “r1” value reads like this: under setting [1], 0.0494 mL/µg/s; (molecular weight adjusted) 13.0416 L/mmol/s.
